Measurements published in patent US7129356B2, “Farnesyl transferase inhibiting 4-substituted quinoline and quinazoline derivatives” (Janssen Pharmaceutica N.V., priority 2000, dated 2006).

Compound | melting point [°C]
O=c1cc(Oc2ccccc2)c2cc(C(c3ccc(Cl)cc3)n3ccnc3)ccc2[nH]1 (racemic) [Example B1, (±)-6-[(4-chlorophenyl)-1H-imidazol-1-ylmethyl]-4-phenoxy-2(1H)-quinolinone] | 233.3
Cn1c(=O)cc(CCc2cccc(Cl)c2)c2cc(C(O)(c3ccc(Cl)cc3)c3cccnc3)ccc21 (stereo not shown) [Example B14, 4-[2-(3-chlorophenyl)ethyl]-6-[(4-chlorophenyl)hydroxy-3-pyridinylmethyl]-1-methyl-2(1H)-quinolinone] | 115
CN(C(=O)c1cc(=O)n(C)c2ccc(C(O)(c3ccc(Cl)cc3)c3cncn3C)cc12)c1cccc(Cl)c1 (stereo not shown) [Example B11, N-(3-chlorophenyl)-6-[(4-chlorophenyl)hydroxy(1-methyl-1H-imidazol-5-yl)methyl]-1,2-dihydro-N,1-dimethyl-2-oxo-4-quinolinecarboxamide] | 218
O=c1[nH]c2ccc(C(c3ccc(Cl)cc3)n3ccnc3-c3ccccc3)cc2c(Oc2cccc(Cl)c2)c1CO (stereo not shown) [Example B5, 4-(3-chlorophenoxy)-6-[(4-chlorophenyl)(2-phenyl-1H-imidazol-1-yl)methyl]-3-(hydroxymethyl)-2(1H)-quinolinone] | 246
Cn1cnnc1C(O)(c1ccc(Cl)cc1)c1ccc2c(c1)c(CCc1cccc(Cl)c1)cc(=O)n2C (stereo not shown) [Example B20, 4-[2-(3-chlorophenyl)ethyl]-6-[(4-chlorophenyl)hydroxy(4-methyl-4H-1,2,4-triazol-3-yl)methyl]-1-methyl-2(1H)-quinolinone] | 200
Cn1cncc1C(N)(c1ccc(Cl)cc1)c1ccc2c(c1)c(CCc1cccc(Cl)c1)cc(=O)n2C (stereo not shown) [Example B3, 6-[amino(4-chlorophenyl)(1-methyl-1H-imidazol-5-yl)methyl]-4-[2-(3-chlorophenyl)ethyl]-1-methyl-2(1H)-quinolinone] | 165

Next, values leading:

melting point [°C] | Compound
90 | Cn1c(=O)cc(CCc2cccc(Cl)c2)c2cc(C(N)(c3ccc(Cl)cc3)c3cccnc3)ccc21 (stereo not shown) [Example B15, 6-[amino(4-chlorophenyl)-3-pyridinylmethyl]-4-[2-(3-chlorophenyl)ethyl]-1-methyl-2(1H)-quinolinone]
185 | Cc1cccc(N(C)C(=O)c2cc(=O)n(C)c3ccc(C(O)(c4ccc(Cl)cc4)c4cncn4C)cc23)c1 (stereo not shown) [Example B12, 6-[(4-chlorophenyl)hydroxy(1-methyl-1H-imidazol-5-yl)methyl]-1,2-dihydro-N,1-dimethyl-N-(3-methylphenyl)-2-oxo-4-quinolinecarboxamide]
189 | CCOC(=O)c1c(Oc2cccc(Cl)c2)c2cc(C(c3ccc(Cl)cc3)c3cnc(-c4ccccc4)[nH]3)ccc2[nH]c1=O (stereo not shown) [Example B4 F2, 4-(3-chlorophenoxy)-6-[(4-chlorophenyl)(2-phenyl-1H-imidazol-5-yl)methyl]-1,2-dihydro-2-oxo-3-quinolinecarboxylic acid ethyl ester]
190 | Cn1cncc1C(O)(c1ccc(Cl)cc1)c1ccc2c(c1)c(CCc1cccc(Cl)c1)cc(=O)n2C (stereo not shown) [Example B2, 4-[2-(3-chlorophenyl)ethyl]-6-[(4-chlorophenyl)hydroxy(1-methyl-1H-imidazol-5-yl)methyl]-1-methyl-2(1H)-quinolinone]
